According to patent publication US9216973B2, “Insecticidal compounds” (Syngenta Participations AG, priority 2008, dated 2015):

Experiments:
[1] = system: Heliothis virescens (Tobacco budworm); assay: Heliothis virescens egg test on artificial diet; type: in vivo; settings: for pest or weed control at 200 ppm: 96 h, 200 ppm (concentration in well 18 ppm), eggs 0-24 h old on artificial diet, egg mortality, larval mortality, growth regulation after 4 days, read-out: control of Heliothis virescens; for effect on mortality, feeding behavior, or growth regulation: same protocol, 200 ppm
Protocol: (§1) This Example illustrates the insecticidal and acaricidal properties of compounds of formula (I). The tests were performed as follows:
(§2) Cotton leaf discs were placed on agar in a 24-well microtiter plate and sprayed with test solutions at an application rate of 200 ppm. After drying, the leaf discs were infested with 5 L1 larvae. The samples were checked for mortality, feeding behavior, and growth regulation 3 days after treatment (DAT). The following compound gave at least 80% control of Spodoptera littoralis: A1, A2, A5, A6, A7, A8, A10, A11, A12, A13, A14, A15, A16, A17, A18, A19, A21, A22, A23, A24, A25, A30, A31, A32, A33, A34, A35, A39, A40, A41 A42, A43, A44, A45, A46, A47, A48, A49, A50, A51, A53, A54, A55, A59, A60, A61, A62. Heliothis virescens (Tobacco budworm): Eggs (0-24 h old) were placed in 24-well microtiter plate on artificial diet and treated with test solutions at an application rate of 200 ppm (concentration in well 18 ppm) by pipetting. After an incubation period of 4 days, samples were checked for egg mortality, larval mortality, and growth regulation. The following compound gave at least 80% control of Heliothis virescens: A1, A2, A3, A4, A5, A6, A7, A8, A10, A11, A12, A13, A14, A15, A16, A18, A19, A21, A22, A24, A25, A30, A31, A32, A33, A34, A35, A37, A38, A39, A40, A42, A43, A44, A45, A46, A47, A48, A49, A50, A51, A55, AA57, A58, A59, A60, A61, A62. Plutella xylostella (Diamond back moth): 24-well microtiter plate (MTP) with artificial diet was treated with test solutions at an application rate of 200 ppm (concentration in well 18 ppm) by pipetting. After drying, the MTP's were infested with L2 larvae (7-12 per well). After an incubation period of 6 days, samples were checked for larval mortality and growth regulation. The following compound gave at least 80% control of Plutella xylostella: A1, A2, A5, A6, A7, A8, A9, A10, A11, A12, A13, A14, A15, A16, A17, A18, A19, A20, A21, A22, A24, A25, A30, A31, A32, A33, A34, A35, A37, A38, A39, A40, A42, A43, A44, A45, A46, A47, A48, A49, A50, A51, A52, A53, A54, A55, A57, A58, A59, A60, A61, A62, B3. Diabrotica balteata (Corn root worm): A 24-well microtiter plate (MTP) with artificial diet was treated with test solutions at an application rate of 200 ppm (concentration in well 18 ppm) by pipetting. After drying, the MTP's were infested with L2 larvae (6-10 per well). After an incubation period of 5 days, samples were checked for larval mortality and growth regulation. The following compound gave at least 80% control of Diabrotica balteata: A1, A2, A5, A6, A7, A10, A11, A12, A13, A14, A15, A16, A17, A18, A19, A21, A22, A24, A25, A30, A31, A32, A33, A34, A35, A38, A39, A40, A42, A43, A44, A45, A46, A47, A48, A49, A50, A59, A60, A61, A62. Thrips tabaci (Onion thrips): Sunflower leaf discs were placed on agar in a 24-well microtiter plate and sprayed with test solutions at an application rate of 200 ppm. After drying, the leaf discs were infested with an […] population of mixed ages. After an incubation period of 7 days, samples were checked for mortality. The following compounds gave at least 80% control of Thrips tabaci: A1, A2, A5, A6, A7, A8, A10, A12, A13, A14, A15, A16, A17, A18, A19, A21, A24, A25, A30, A31, A32, A33, A34, A35, A39, A42, A43, A44, A45, A46, A47, A48, A49, A50, A51, A53, A54, A57, A58, A59, A60, A61, A62. Tetranychus urticae (Two-spotted spider mite): Bean leaf discs on agar in 24-well microtiter plates were sprayed with test solutions at an application rate of 200 ppm. After drying, the leaf discs are infested with mite populations of mixed ages. 8 days later, discs are checked for egg mortality, larval mortality, and adult mortality. The following compound gave at least 80% control of Tetranychus urticae: A1, A2, A4, A5, A6, A7, A8, A10, A11, A12, A13, A14, A15, A16, A17, A18, A19, A20, A21, A22, A30, A31, A32, A33, A34, A35, A39, A40, A41, A42, A43, A44, A45, A46, A47, A48, A49, A50, A51, A53, A54, A55, A57, A59, A60, A61, A62.

[2] = system: Tetranychus urticae (Two-spotted spider mite); assay: Tetranychus urticae bean leaf disc spray test; type: in vivo; settings: for pest or weed control at 200 ppm: foliar, 192 h, 200 ppm spray on bean leaf discs, mite populations of mixed ages, egg, larval and adult mortality 8 days later, read-out: control of Tetranychus urticae; for effect on mortality, feeding behavior, or growth regulation: same protocol, 200 ppm
Protocol: as §1, §2

SMILES | pest or weed control at 200 ppm [1] [%] | pest or weed control at 200 ppm [2] [%] | effect on mortality, feeding behavior, or growth regulation [1] | effect on mortality, feeding behavior, or growth regulation [2]
Cc1cc(C2CC(c3cc(Cl)cc(Cl)c3)(C(F)(F)F)ON2C)ccc1C(=O)NC1C[S+]([O-])C1 (centres unmarked) [A18] | ≥ 80 | ≥ 80 | – | –
Cc1cc(C2=NOC(c3cc(Cl)cc(Cl)c3)(C(F)(F)F)C2Br)ccc1C(=O)NC1C[S+]([O-])C1 (centres unmarked) [A7] | ≥ 80 | ≥ 80 | – | –
Cc1cc(N2CC(c3cc(Cl)cc(Cl)c3)(C(F)(F)F)OC2=O)ccc1C(=O)NC1C[S+]([O-])C1 (centres unmarked) [A10] | ≥ 80 | ≥ 80 | – | –
Cc1cc(C2=NOC(c3cc(Cl)cc(Cl)c3)(C(F)(F)F)C2O)ccc1C(=O)NC1C[S+]([O-])C1 (centres unmarked) [A53] | – | ≥ 80 | – | –
Cc1cc(C2=NOC(c3cc(Cl)cc(Cl)c3)(C(F)(F)F)C2O)ccc1C(=O)NC1CS(=O)(=O)C1 (centres unmarked) [A51] | ≥ 80 | ≥ 80 | – | –
Cc1cc(C2=NOC(c3cc(Cl)cc(Cl)c3)(C(F)(F)F)C2F)ccc1C(=O)NC1CS(=O)(=O)C1 (centres unmarked) [A59] | ≥ 80 | ≥ 80 | – | –
Cc1cc(C2=NOC(c3cc(Cl)cc(Cl)c3)(C(F)(F)F)/C2=N/O)ccc1C(=O)NC1(C)CSC1 (centres unmarked) [A56] | – | – | little or no effect | little or no effect
Cc1cc(C2=NOC(c3cc(Cl)cc(Cl)c3)(C(F)(F)F)C2F)ccc1C(=O)NC1(C)CSC1 (centres unmarked) [A60] | ≥ 80 | ≥ 80 | – | –
Cc1cc(C2=NOC(c3cc(Cl)cc(Cl)c3)(C(F)(F)F)C2Cl)ccc1C(=O)NC1CS(=O)(=O)C1 (centres unmarked) [A32] | ≥ 80 | ≥ 80 | – | –
Cc1cc(C2=NCC(c3cc(Cl)cc(Cl)c3)(C(F)(F)F)C2)ccc1C(=O)NC1CS(=O)(=O)C1 (centres unmarked) [A46] | ≥ 80 | ≥ 80 | – | –
Cc1cc(C2=NCC(c3cc(Cl)cc(Cl)c3)(C(F)(F)F)C2)ccc1C(=O)NC1C[S+]([O-])C1 (centres unmarked) [A48] | ≥ 80 | ≥ 80 | – | –
O=C(NC1CS(=O)(=O)C1)c1ccc(C2=NOC(c3cc(Cl)cc(Cl)c3)(C(F)(F)F)C2)c2ccccc12 (centres unmarked) [A15] | ≥ 80 | ≥ 80 | – | –
Cc1cc(C2=NN(C)C(c3cc(Cl)cc(Cl)c3)(C(F)(F)F)C2)ccc1C(=O)NC1C[S+]([O-])C1 (centres unmarked) [A13] | ≥ 80 | ≥ 80 | – | –
Cc1cc(C2=NN(C)C(c3cc(Cl)cc(Cl)c3)(C(F)(F)F)C2)ccc1C(=O)NC1CSC1 (centres unmarked) [A14] | ≥ 80 | ≥ 80 | – | –
Cc1cc(C2=NOC(c3cc(Cl)cc(Cl)c3)(C(F)(F)F)C2O)ccc1C(=O)NC1CSC1 (centres unmarked) [A54] | – | ≥ 80 | – | –
Cc1nc2c(C3=NOC(c4cc(Cl)cc(Cl)c4)(C(F)(F)F)C3)ccc(C(=O)NC3CSC3)c2o1 (centres unmarked) [A29] | – | – | little or no effect | little or no effect
O=C(NC1C[S+]([O-])C1)c1ccc(C2=NOC(c3cc(Cl)cc(Cl)c3)(C(F)(F)F)C2)c2ccccc12 (centres unmarked) [A16] | ≥ 80 | ≥ 80 | – | –

SMILES | pest or weed control at 200 ppm [1] [%] | pest or weed control at 200 ppm [2] [%] | effect on mortality, feeding behavior, or growth regulation [1] | effect on mortality, feeding behavior, or growth regulation [2]
Cc1cc(C2=NOC(c3cc(Cl)cc(Cl)c3)(C(F)(F)F)C2F)ccc1C(=O)NC1CSC1 (centres unmarked) [A61] | ≥ 80 | ≥ 80 | – | –
Cc1cc(C2=NCC(c3cc(Cl)cc(Cl)c3)(C(F)(F)F)C2)ccc1C(=O)NC1(C)CSC1 (centres unmarked) [A47] | ≥ 80 | ≥ 80 | – | –
O=C(NC1CS(=O)(=O)C1)c1ccc(C2=NOC(c3cc(Cl)cc(Cl)c3)(C(F)(F)F)C2Br)c2ccccc12 (centres unmarked) [A42] | ≥ 80 | ≥ 80 | – | –
Cc1cc(C2=NOC(c3cc(Cl)cc(Cl)c3)(C(F)(F)F)C2Cl)ccc1C(=O)NC1(C)CSC1 (centres unmarked) [A33] | ≥ 80 | ≥ 80 | – | –
Cc1cc(C2CC(c3cc(Cl)cc(Cl)c3)(C(F)(F)F)ON2C)ccc1C(=O)NC1CSC1 (centres unmarked) [A21] | ≥ 80 | ≥ 80 | – | –
Cc1cc(C2=NOC(c3cc(Cl)cc(Cl)c3)(C(F)(F)F)C2F)ccc1C(=O)NC1C[S+]([O-])C1 (centres unmarked) [A62] | ≥ 80 | ≥ 80 | – | –
CC1(NC(=O)c2cccc3c(C4=NOC(c5cc(Cl)cc(Cl)c5)(C(F)(F)F)C4)cccc23)CSC1 (centres unmarked) [A36] | – | – | little or no effect | little or no effect
Cc1cc(C2CC(c3cc(Cl)cc(Cl)c3)(C(F)(F)F)ON2C)ccc1C(=O)NC1CS(=O)(=O)C1 (centres unmarked) [A19] | ≥ 80 | ≥ 80 | – | –
Cc1cc(C2=NOC(c3cc(Cl)cc(Cl)c3)(C(F)(F)F)O2)ccc1C(=O)NC1CSC1 (centres unmarked) [A17] | – | ≥ 80 | – | –
CC1(NC(=O)c2ccc(C3=NOC(c4cc(Cl)cc(Cl)c4)(C(F)(F)F)C3Br)c3ccccc23)CSC1 (centres unmarked) [A43] | ≥ 80 | ≥ 80 | – | –
O=C(NC1CS(=O)(=O)C1)c1ccc(C2=NOC(c3cc(Cl)cc(Cl)c3)(C(F)(F)F)C2)c2nsnc12 (centres unmarked) [A22] | ≥ 80 | ≥ 80 | – | –
Cc1cc(C2=NN(C)C(c3cc(Cl)cc(Cl)c3)(C(F)(F)F)C2)ccc1C(=O)NC1(C)CSC1 (centres unmarked) [A12] | ≥ 80 | ≥ 80 | – | –
Cc1cc(C2=NOC(c3cc(Cl)cc(Cl)c3)(C(F)(F)F)C2Br)ccc1C(=O)NC1(C)CSC1 (centres unmarked) [A5] | ≥ 80 | ≥ 80 | – | –
Cc1cc(C2=NOC(c3cc(Cl)cc(Cl)c3)(C(F)(F)F)/C2=N/O)ccc1C(=O)NC1CS(=O)(=O)C1 (centres unmarked) [A55] | ≥ 80 | ≥ 80 | – | –
Cc1nc2c(C3=NOC(c4cc(Cl)cc(Cl)c4)(C(F)(F)F)C3)ccc(C(=O)NC3(C)CSC3)c2o1 (centres unmarked) [A27] | – | – | little or no effect | little or no effect
Cc1cc(C2=NOC(c3cc(Cl)cc(Cl)c3)(C(F)(F)F)C2Br)ccc1C(=O)NC1CSC1 (centres unmarked) [A6] | ≥ 80 | ≥ 80 | – | –
CC1(NC(=O)c2ccc(C3=NOC(c4cc(Cl)cc(Cl)c4)(C(F)(F)F)C3)c3ccccc23)CSC1 (centres unmarked) [A1] | ≥ 80 | ≥ 80 | – | –
